The source of these data is publication PMC6385242, “Identification and characterization of a factor Va-binding site on human prothrombin fragment 2” (Scientific Reports, 2019).

The test system of series [1] is F2 (prothrombin fragment 2). In words: HSQC NMR of 15N-labeled F2 with thrombin or thrombin-derived peptide. To be noted: F2:peptide ratio as printed. It is filed as binding, human. As for the experimental part:
Uniform ^15N and ^13C/^15N isotopic labeling of F2 was achieved as described previously. Once labeled, F2 preparations prepared and pH adjusted, 25 μL of D2O was added to the protein solution to provide the NMR deuterium lock signal. For the titration experiments, small aliquots of the FVa-HC or FPRck-thrombin, both in 2 mM HEPES, 50 mM sodium phosphate buffer, pH 7, were added to samples of ^15N-labeled F2 up to a molar ratio of ~10:1. […]
All NMR experiments were carried out at 35° C on a Bruker Avance500 or an Avance800 spectrometer equipped with triple-resonance (^1H, ^13C, and ^15N) and three-axis gradient probes. Two-dimensional and three-dimensional NMR data collected for ^15N- and ^13C/^15N-labeled F2 included ^1H-^15N HSQC, HNCO, HN(CA)CO, HNCA, HN(CO)CA, CBCA(CO)NH and HNCACB[57]–[59]. Water suppression was achieved using the WATERGATE method with a 3:9:19 selective pulse incorporated in all the three-dimensional pulse sequences. […]
synthesized a peptide corresponding to residues 91- 101 of human thrombin with two cysteine residues added to form a disulfide bond between the N- and C-terminal en ds of the p eptide (s ee Experimental Procedures). […] Potential binding of the thrombin- derived peptide with F2 was monitored by the 1H-15N HSQC spectra of 15N-labeled F2 with a F2:peptide ratio of 3:1. […]

The test system of series [2] is FXa/PCPS, prothrombin activation. Briefly: Inhibition of FXa-mediated prothrombin activation by F2-derived peptides in the absence of FVa. It is filed as biochemical, human. To be noted: 300 nM prothrombin, 5 mM CaCl2, 5 μM DAPA, 50 μM PCPS, 20 nM FXa. The method, then: Figure 3 Inhibition of FXa-mediated prothrombin activation by synthetic peptides derived from F2. […] Reactions were started by addition of 20 nM FXa. […] Reactions were initiated by addition of 0.1 nM FXa. Non-linear regression analysis was carried out to determine the IC50 and the apparent Ki was calculated using the Cheng-Prusoff equation.
(§1) Reactions were started with addition of FXa (0.1 nM), and monitored in SpectraMax Gemini fluorescence plate reader (Molecular Devices, Sunnyvale, California) at excitation and emission wavelengths of 280 nm and 545 nm, respectively, with a 530 nm emission cut off filter in the emission beam at 25 °C. In the absence of FVa, reactions were carried out as described above; however, the reactions were started with the addition of 20 nM FXa. The Ki values were estimated using the Cheng-Prusoff equation (IC50 = [1 + ([S]/KM)] Ki) based on the IC50 values obtained by nonlinear regression of a rectangular hyperbola, whereby [S] is the prothrombin concentration and KM is the Michaelis constant of prothrombinase for prothrombin determined in a separate experiment as described previously.

The target in series [3] is T1, prothrombinase (FXa/FVa/PCPS), prothrombin activation (Homo sapiens, UniProt P00742+P12259).
T1 construct: purchased Haematologic Technologies, Inc (FXa, FVa); Enzyme Research Laboratories (prothrombin)
Briefly: Relative rate of prothrombin activation with F2-derived peptides (screen, Fig. S1). Format: biochemical. Conditions: peptide 0, 50, 200, 500 μM; 300 nM prothrombin, 5 mM CaCl2, 3 μM DAPA, 50 μM PCPS, 5 nM FVa, 0.05 nM FXa. The method, then: as §1
Figure S1. Relative rate of prothrombin activation in the presence of each of the peptides at various concentrations. Initial rates of prothrombin activation were determined from reactions containing 300 nM prothrombin. 5 mM CaCl2, 3 μM DAPA, 50 μM PCPS, 5 nM FVa and 0.05 nM FXa. Relative rates of prothrombin activation are shown for each concentration of peptide at […]
(1 picture or pasted object on this page, not shown here)

In the next series the test system is prothrombinase. Conditions: cited from earlier work. The source says: It has been widely accepted that FVa alone increases the rate of thrombin generation by 3 orders of magnitude while the membrane surface alone increases the catalytic efficiency of thrombin generation by 2 orders of magnitude, which together increases its catalytic efficiency by 5 orders of magnitude. These individual contributions of the prothrombinase components toward overall thrombin generation, however, were not observed in our experiments (Table 1). […] The 5-orders of magnitude ...

The conditions of series [4]: pH 7.4.
In series [5] the test system is F2 (prothrombin fragment 2). Conditions: thrombin/F2 molar ratios 1:30 to 1:10; clusters Asp68–Lys81 and Ala96–Asp108; ref (9) Koutychenko, A. (2002); cited from earlier work. An excerpt:
page 3: plasma-derived material, indicating purity and functional integrity of the recombinant F2 protein (9). […] Not abl y, there were two upfield -shifted meth yl proton resonances, which are common for a conserved Leu residue in all kringle domains (10 –12) .

T1 sequence (P12259 29-737 limits assumed): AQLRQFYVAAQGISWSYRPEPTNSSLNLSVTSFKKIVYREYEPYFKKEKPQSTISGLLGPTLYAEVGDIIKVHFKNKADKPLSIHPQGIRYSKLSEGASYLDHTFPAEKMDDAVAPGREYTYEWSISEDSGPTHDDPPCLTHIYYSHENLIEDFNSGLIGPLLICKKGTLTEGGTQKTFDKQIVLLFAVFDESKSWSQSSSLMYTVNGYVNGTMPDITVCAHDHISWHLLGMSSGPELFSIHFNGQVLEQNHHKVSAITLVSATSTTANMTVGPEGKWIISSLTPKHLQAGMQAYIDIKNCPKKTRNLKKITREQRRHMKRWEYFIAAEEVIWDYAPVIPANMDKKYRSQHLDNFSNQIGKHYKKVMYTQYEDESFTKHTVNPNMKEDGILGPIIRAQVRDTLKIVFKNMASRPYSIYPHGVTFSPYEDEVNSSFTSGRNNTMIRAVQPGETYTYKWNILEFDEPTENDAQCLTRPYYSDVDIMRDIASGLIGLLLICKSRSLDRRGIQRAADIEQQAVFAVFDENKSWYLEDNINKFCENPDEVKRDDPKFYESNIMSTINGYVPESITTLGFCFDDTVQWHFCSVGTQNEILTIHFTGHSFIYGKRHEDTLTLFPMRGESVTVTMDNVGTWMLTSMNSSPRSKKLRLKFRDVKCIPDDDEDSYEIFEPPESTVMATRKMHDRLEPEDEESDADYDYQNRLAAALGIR
T1 sequence (P12259 1574-2224 limits assumed): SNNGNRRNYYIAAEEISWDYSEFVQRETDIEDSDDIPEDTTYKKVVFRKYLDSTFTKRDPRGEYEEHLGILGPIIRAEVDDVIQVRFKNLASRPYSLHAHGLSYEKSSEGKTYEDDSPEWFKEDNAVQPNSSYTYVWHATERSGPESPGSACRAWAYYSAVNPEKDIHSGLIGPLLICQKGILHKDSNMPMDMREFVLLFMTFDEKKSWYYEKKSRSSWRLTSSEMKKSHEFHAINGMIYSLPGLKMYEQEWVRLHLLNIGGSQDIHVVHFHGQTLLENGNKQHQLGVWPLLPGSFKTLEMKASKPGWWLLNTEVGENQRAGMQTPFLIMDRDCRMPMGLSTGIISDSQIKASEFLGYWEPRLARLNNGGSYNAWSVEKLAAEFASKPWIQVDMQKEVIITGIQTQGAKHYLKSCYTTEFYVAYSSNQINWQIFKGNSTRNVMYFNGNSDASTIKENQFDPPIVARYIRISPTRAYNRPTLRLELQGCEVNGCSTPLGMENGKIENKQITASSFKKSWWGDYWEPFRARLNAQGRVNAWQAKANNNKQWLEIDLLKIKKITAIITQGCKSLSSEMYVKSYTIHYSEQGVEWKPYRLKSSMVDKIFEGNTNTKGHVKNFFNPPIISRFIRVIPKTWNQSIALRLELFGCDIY
T1 sequence (P00742 41-179 partner limits assumed): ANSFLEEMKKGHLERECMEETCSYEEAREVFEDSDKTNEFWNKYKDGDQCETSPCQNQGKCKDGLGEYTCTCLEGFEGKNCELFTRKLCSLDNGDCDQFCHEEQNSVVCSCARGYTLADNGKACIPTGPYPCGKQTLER
T1 sequence (P00742 235-488 partner limits assumed): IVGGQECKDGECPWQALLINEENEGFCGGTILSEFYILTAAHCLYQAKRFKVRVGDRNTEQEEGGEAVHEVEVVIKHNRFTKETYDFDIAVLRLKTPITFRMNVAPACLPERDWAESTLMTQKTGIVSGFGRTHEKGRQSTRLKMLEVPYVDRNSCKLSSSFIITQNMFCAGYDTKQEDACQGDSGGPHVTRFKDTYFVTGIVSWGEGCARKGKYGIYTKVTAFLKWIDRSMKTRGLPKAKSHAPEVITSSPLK

Consider “CH91PRYNWRENLDR101C (disulfide) [thrombin-derived peptide, residues 91-101 in the B-chain of human thrombin with two Cys residues added, cyclic]”, for which, in series [1], the “chemical shift changes in 15N-F2 versus intact thrombin” value is reported as “smaller chemical shift changes”.
As to “DGLDEDSDRAIEGR [F2P8, F2-derived peptide, prothrombin residues 258-271]”, in series [2], the “inhibition of prothrombin activation in the absence of FVa” value was “inhibited prothrombin activation”. Besides, the “dose-dependent inhibition of prothrombin activation” value (“dose-dependent inhibition” below) in series [3] was “inhibited prothrombin activation in a dose-dependent manner”.
“DLNYS*EEAVEEETG [F2P7, F2-derived peptide, prothrombin residues 244-257, cysteine changed to serine]”: the “dose-dependent inhibition” value in series [3] was “did not”.
Consider “EGSSVNLSPPLE [F2P1, F2-derived peptide, prothrombin residues 157-168]”, for which the “inhibition of prothrombin activation in the absence of FVa” value in series [2] is “inhibited prothrombin activation”. In series [3], the “dose-dependent inhibition” value was “inhibited prothrombin activation in a dose-dependent manner”.
With “FVa: factor Va, protein cofactor of prothrombinase”, the “increase in rate of thrombin generation by FVa alone” value with prothrombinase is on record as 3 orders of magnitude.
Turning to LAWASAQAKALSKH [F2P4], in series [4], the solubility result is on record as “not soluble”.
In the case of QDFNSAVQLVEN [F2P5], the solubility entry in series [4] is recorded as “not soluble”.
On to “YVAGKPGDFGY [F2P6, F2-derived peptide, prothrombin residues 232-242]”, for which the “dose-dependent inhibition” value in series [3] is “did not”.
Take thrombin: the “perturbed HSQC peaks of 15N-F2” value in series [5] is “two major clusters”.
